Calls of active or inactive are those of the source. The rule behind the calls is not given here.
Experiments:
[1] = biological target: C-C chemokine receptor type 8 (Homo sapiens, UniProt P51685); assay: Antagonist activity at human recombinant CCR8 expressed in RBL cells assessed as inhibition of I-309-induced intracellular calcium mobilization by FLIPR assay; type: functional, cell-based
Liver microsomes [2] = assay: Intrinsic clearance in human liver microsome; type: ADME
[3] = Half life in mouse at 1 mg/kg, iv or 2 mg/kg, po; type: ADME, organism-based; settings: in vivo
[4] = biological target: Voltage-gated inwardly rectifying potassium channel KCNH2 (Homo sapiens, UniProt Q12809); assay: Inhibition of hERG; type: toxicity
Voltage-gated inwardly rectifying potassium channel KCNH2, sequence (Q12809 whole entry): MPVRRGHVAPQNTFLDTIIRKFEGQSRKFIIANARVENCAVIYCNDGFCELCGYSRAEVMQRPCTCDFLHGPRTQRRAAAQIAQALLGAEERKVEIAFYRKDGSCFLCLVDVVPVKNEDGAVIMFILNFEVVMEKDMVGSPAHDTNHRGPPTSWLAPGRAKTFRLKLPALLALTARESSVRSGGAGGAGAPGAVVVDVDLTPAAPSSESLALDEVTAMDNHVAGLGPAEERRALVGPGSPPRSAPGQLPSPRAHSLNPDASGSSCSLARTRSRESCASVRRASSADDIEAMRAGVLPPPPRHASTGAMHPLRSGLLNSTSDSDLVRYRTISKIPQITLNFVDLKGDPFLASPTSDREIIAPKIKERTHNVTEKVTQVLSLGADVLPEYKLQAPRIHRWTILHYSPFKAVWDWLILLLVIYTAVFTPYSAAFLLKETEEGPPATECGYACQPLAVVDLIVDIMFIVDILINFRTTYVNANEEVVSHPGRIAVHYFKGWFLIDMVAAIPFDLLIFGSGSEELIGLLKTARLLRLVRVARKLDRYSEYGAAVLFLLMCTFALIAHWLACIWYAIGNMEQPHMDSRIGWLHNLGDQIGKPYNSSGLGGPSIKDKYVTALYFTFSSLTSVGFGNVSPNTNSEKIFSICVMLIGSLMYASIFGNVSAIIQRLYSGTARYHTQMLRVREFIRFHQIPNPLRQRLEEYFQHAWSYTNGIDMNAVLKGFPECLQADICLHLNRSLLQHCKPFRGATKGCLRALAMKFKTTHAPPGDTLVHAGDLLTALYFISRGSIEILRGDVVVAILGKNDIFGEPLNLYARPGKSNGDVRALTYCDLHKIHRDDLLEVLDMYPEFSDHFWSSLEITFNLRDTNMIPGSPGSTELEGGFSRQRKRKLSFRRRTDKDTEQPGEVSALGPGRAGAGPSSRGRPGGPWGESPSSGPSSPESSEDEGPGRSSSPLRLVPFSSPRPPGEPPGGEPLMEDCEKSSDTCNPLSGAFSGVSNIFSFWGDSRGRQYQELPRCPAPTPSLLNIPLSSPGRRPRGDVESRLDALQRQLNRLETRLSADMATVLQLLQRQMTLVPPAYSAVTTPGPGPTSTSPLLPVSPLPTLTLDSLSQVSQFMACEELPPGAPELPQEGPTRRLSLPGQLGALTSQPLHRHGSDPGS

[5] = biological target: T1, C-C chemokine receptor type 8 (Mus musculus) (UniProt P56484); assay: Antagonist activity at mouse CCR8 by FLIPR assay; type: functional
T1 sequence (whole entry): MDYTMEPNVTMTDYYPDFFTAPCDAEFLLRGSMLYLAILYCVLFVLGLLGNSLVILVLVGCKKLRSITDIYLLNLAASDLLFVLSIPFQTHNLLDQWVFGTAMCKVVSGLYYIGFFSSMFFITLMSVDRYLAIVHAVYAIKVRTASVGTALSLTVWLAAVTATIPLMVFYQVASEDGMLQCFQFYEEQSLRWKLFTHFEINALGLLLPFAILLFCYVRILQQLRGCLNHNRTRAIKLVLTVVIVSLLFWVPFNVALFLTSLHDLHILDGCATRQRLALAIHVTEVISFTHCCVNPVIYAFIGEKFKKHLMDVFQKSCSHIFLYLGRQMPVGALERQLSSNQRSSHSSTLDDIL

Rattus norvegicus = species: Rattus norvegicus; assay: Antagonist activity at rat CCR8 by FLIPR assay; type: functional
[6] = Clearance in mouse blood at 1 mg/kg, iv or 2 mg/kg, po; type: ADME, organism-based
Homo sapiens = species: Homo sapiens; assay: Selectivity for hERG over CCR8
[7] = Oral bioavailability in mouse at 2 mg/kg; type: ADME, organism-based; settings: in vivo
[8] = Volume of distribution at steady state in mouse at 1 mg/kg, iv or 2 mg/kg, po; type: ADME, organism-based; settings: in vivo, read-out: Vdss
Cavia porcellus = species: Cavia porcellus; assay: Antagonist activity at guinea pig CCR8 by FLIPR assay; type: functional
Liver microsomes [9] = assay: Intrinsic clearance in rat liver microsome; type: ADME

C-C chemokine receptor type 8, sequence (P51685 whole entry): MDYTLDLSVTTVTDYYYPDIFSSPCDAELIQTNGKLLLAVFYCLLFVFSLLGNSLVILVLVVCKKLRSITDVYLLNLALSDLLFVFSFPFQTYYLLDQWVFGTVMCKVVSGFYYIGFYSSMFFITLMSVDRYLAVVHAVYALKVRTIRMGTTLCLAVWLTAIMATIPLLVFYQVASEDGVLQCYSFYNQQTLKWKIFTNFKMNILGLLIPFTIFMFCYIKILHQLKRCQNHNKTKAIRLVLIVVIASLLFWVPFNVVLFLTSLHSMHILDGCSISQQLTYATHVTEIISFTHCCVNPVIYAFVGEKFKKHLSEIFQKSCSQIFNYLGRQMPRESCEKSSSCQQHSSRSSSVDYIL

Q: For `O=C1OC(c2cccc3ccccc23)CN1C1CCN(Cc2cc3ccccc3[nH]2)CC1` (centres undefined), which IC50 [1] is on record?
A: Its IC50 is over 50100 nM.

Q: With `COc1ccc(CN2CCC(N3CC(c4ccnc5ccc(OC)cc45)OC3=O)CC2)cc1` (centres undefined) as the compound, how does the IC50 [1] read?
A: The IC50 was 1260 nM.

Q: Which IC50 [1] does the source give for `COc1ccc2nccc(C3CN(C4CCN(Cc5ccc(-c6ccccc6)cc5)CC4)C(=O)O3)c2c1` (centres undefined) here?
A: Its IC50 is over 50100 nM.

Q: With `COc1ccc2nccc(C3CN(C4CCN(Cc5cccc(Cl)c5)CC4)C(=O)O3)c2c1` (centres undefined) as the compound, how does the IC50 [1] read?
A: The IC50 was 6310 nM.

Q: For `COc1ccc2nccc(C3CN(C4CCN(CC5CCCCC5)CC4)C(=O)O3)c2c1` (centres undefined), which IC50 [1] is on record?
A: Its IC50 is 7940 nM.

Q: Which IC50 [1] does the source give for `COc1ccc2nccc(C3CN(C4CCN(Cc5ccccc5Cl)CC4)C(=O)O3)c2c1` (centres undefined) here?
A: Its IC50 is over 50100 nM.

Q: Which IC50 [1] does the source give for `COc1ccc2nccc(C3CN(C4CCN(Cc5cc6ccccc6[nH]5)CC4)C(=O)O3)c2c1` (centres undefined) here?
A: Its IC50 is 25.1 nM.

Q: Which CL (Liver microsomes [2]) does the source give for `COc1ccc2nccc([C@@H]3CN(C4CCN(Cc5cc6ccccc6[nH]5)CC4)C(=O)O3)c2c1` here?
A: Its CL is 7 mL/min/g.

Q: What about the half-life [3] of the same compound?
A: Its half-life is 1 h.

Q: What about the IC50 [4] of the same compound?
A: Its IC50 is 1580 nM.

Q: What about the Activity [5] of the same compound?
A: Its Activity is “inactive”.

Q: What about the Activity (Rattus norvegicus) of the same compound?
A: Its Activity is “inactive”.

Q: What about the clearance [6] of the same compound?
A: The clearance was 38 mL/min/kg.

Q: What about the Selectivity ratio (Homo sapiens) of the same compound?
A: The Selectivity ratio was 79.

Q: What about the IC50 [1] of the same compound?
A: The IC50 was 20 nM.

Q: What about the bioavailability [7] of the same compound?
A: Its bioavailability is 18%.

Q: And the Vd [8]?
A: Its Vd is 2.4 L/kg.

Q: And the Activity (Cavia porcellus)?
A: The Activity was “inactive”.

Q: What about the CL (Liver microsomes [9]) of the same compound?
A: Its CL is 7 mL/min/g.

Q: With `COc1ccc2nccc(C3CN(C4CCN(Cc5ccc6ccccc6c5)CC4)C(=O)O3)c2c1` (centres undefined) as the compound, how does the IC50 [1] read?
A: Its IC50 is 1260 nM.

Q: Which IC50 [1] does the source give for `COc1ccc2nccc(C3CN(C4CCN(Cc5cc6ccccc6o5)CC4)C(=O)O3)c2c1` (centres undefined) here?
A: The IC50 was 1260 nM.

Q: For `COc1ccc2nccc(C3CN(C4CCN(Cc5ccc6ccccc6n5)CC4)C(=O)O3)c2c1` (centres undefined), which IC50 [1] is on record?
A: Its IC50 is 3160 nM.

Q: For `O=C1OC(c2ccncc2)CN1C1CCN(Cc2cc3ccccc3[nH]2)CC1` (centres undefined), which IC50 [1] is on record?
A: Its IC50 is over 50100 nM.

Q: With `COc1ccc2nccc(C3CN(C4CCCCN(Cc5cc6ccccc6[nH]5)C4)C(=O)O3)c2c1` (centres undefined) as the compound, how does the IC50 [1] read?
A: Its IC50 is over 50100 nM.

Q: For `COc1ccc2nccc(C3CN(CCCNCc4cc5ccccc5[nH]4)C(=O)O3)c2c1` (centres undefined), which IC50 [1] is on record?
A: The IC50 was 1580 nM.

Q: With `COc1ccc2nccc(C3CN(C4CCN(Cc5c[nH]c6ccccc56)CC4)C(=O)O3)c2c1` (centres undefined) as the compound, how does the IC50 [1] read?
A: Its IC50 is over 50100 nM.

Q: For `COc1ccc2nccc(C3CN(C4CCN(Cc5ccccc5)CC4)C(=O)O3)c2c1` (centres undefined), which IC50 [1] is on record?
A: Its IC50 is 12600 nM.

Q: For `COc1ccc2nccc(C3CN(C4CCN(C)CC4)C(=O)O3)c2c1` (centres undefined), which IC50 [1] is on record?
A: The IC50 was over 50100 nM.

Q: With `O=C1OC(c2ccnc3ccccc23)CN1C1CCN(Cc2cc3ccccc3[nH]2)CC1` (centres undefined) as the compound, how does the IC50 [1] read?
A: The IC50 was 1000 nM.

Q: With `COc1ccc2nccc(C3CN(C4CCN(Cc5cc6ccccc6s5)CC4)C(=O)O3)c2c1` (centres undefined) as the compound, how does the IC50 [1] read?
A: The IC50 was 794 nM.

Q: With `COc1ccc2nccc(C3CN(C4CCN(Cc5ccc(Cl)cc5)CC4)C(=O)O3)c2c1` (centres undefined) as the compound, how does the IC50 [1] read?
A: The IC50 was 631 nM.

Q: Which IC50 [1] does the source give for `COc1ccc2nccc(C3CN(C4CCN(C(=O)c5ccc(Cl)c(Cl)c5)CC4)C(=O)O3)c2c1` (centres undefined) here?
A: The IC50 was 6310 nM.

Q: With `COc1ccc2nccc(C3CN(C4CCN(Cc5ccc(Br)cc5)CC4)C(=O)O3)c2c1` (centres undefined) as the compound, how does the IC50 [1] read?
A: The IC50 was 50.1 nM.

Q: With `COc1ccc2nccc(C3CN(CC4CCN(Cc5cc6ccccc6[nH]5)CC4)C(=O)O3)c2c1` (centres undefined) as the compound, how does the IC50 [1] read?
A: The IC50 was over 50100 nM.

Q: Which IC50 [1] does the source give for `COc1ccc2nccc(C3CN(C4CCN(Cc5cc6ccccc6[nH]5)C4)C(=O)O3)c2c1` (centres undefined) here?
A: The IC50 was over 50100 nM.

Q: With `O=C1OC(c2cnc3ccccc3c2)CN1C1CCN(Cc2cc3ccccc3[nH]2)CC1` (centres undefined) as the compound, how does the IC50 [1] read?
A: Its IC50 is over 50100 nM.

Q: With `COc1ccc2nccc(C3CN(CC4CCCN(Cc5cc6ccccc6[nH]5)C4)C(=O)O3)c2c1` (centres undefined) as the compound, how does the IC50 [1] read?
A: Its IC50 is over 50100 nM.

Q: For `COc1ccc2nccc(C3CN(C4CCN(Cc5ccc(Cl)c(Cl)c5)CC4)C(=O)O3)c2c1` (centres undefined), which IC50 [1] is on record?
A: The IC50 was 126 nM.

Q: For `COc1ccc2nccc(C3CN(C4CCN(CCCc5ccccc5)CC4)C(=O)O3)c2c1` (centres undefined), which IC50 [1] is on record?
A: Its IC50 is 251 nM.

Q: For `COc1ccc2nccc(C3CN(C4CCN(Cc5cc6ccccc6[nH]5)CC4)C(=O)O3)c2n1` (centres undefined), which IC50 [1] is on record?
A: The IC50 was 31.6 nM.

Q: With `COc1ccc2nccc(C3CN(CCCN(C)Cc4cc5ccccc5[nH]4)C(=O)O3)c2c1` (centres undefined) as the compound, how does the IC50 [1] read?
A: The IC50 was 6310 nM.

Q: With `CCCCCCN1CCC(N2CC(c3ccnc4ccc(OC)cc34)OC2=O)CC1` (centres undefined) as the compound, how does the IC50 [1] read?
A: The IC50 was 501 nM.

Q: For `COc1ccc2nccc(C3CN(C4CCN(S(=O)(=O)c5ccc(Cl)c(Cl)c5)CC4)C(=O)O3)c2c1` (centres undefined), which IC50 [1] is on record?
A: The IC50 was over 50100 nM.

Q: With `COc1ccc2nccc(C3CN(C4CCN(Cc5ccc(C)c(C)c5)CC4)C(=O)O3)c2c1` (centres undefined) as the compound, how does the IC50 [4] read?
A: Its IC50 is 6310 nM.

Q: And the Selectivity ratio (Homo sapiens)?
A: Its Selectivity ratio is 158.

Q: What about the IC50 [1] of the same compound?
A: Its IC50 is 39.8 nM.

Q: With `COc1ccc2nccc(C3CN(C4CCN(Cc5ccc(C#N)cc5)CC4)C(=O)O3)c2c1` (centres undefined) as the compound, how does the IC50 [1] read?
A: The IC50 was 12600 nM.

Q: Which IC50 [1] does the source give for `O=C1OC(c2ccc3ccccc3n2)CN1C1CCN(Cc2cc3ccccc3[nH]2)CC1` (centres undefined) here?
A: Its IC50 is over 50100 nM.

Q: With `COc1ccc2nccc(C3CN(C4CCN(Cc5cc6ccccc6n5C)CC4)C(=O)O3)c2c1` (centres undefined) as the compound, how does the IC50 [1] read?
A: Its IC50 is 3160 nM.
